# Legend:
# [1] = system: rat lung membrane SMBS; test: Receptor-binding assessment test of compounds using rat lung membranes ([125I]-iodocyanopindolol ligand binding assay); conditions: ratio of inhibiting specific binding of [125I]-iodocyanopindolol to rat lung membrane SMBS; test compound 1 μM
# Method: Receptor-Binding Assessment Test of Compounds Using Rat Lung Membranes
# The assessment test was carried out according to the method of Sugasawa, T. et al., J. Biol. Chem., 272, 21244-21252 (1997).
# Preparation of Rat Lung Membranes
# Lung taken out from SD male rat (7-week old under test, Charles River Laboratories Japan, Inc.) was removed trachea and blood vessels to shred and washed with iced tris-saline buffer (10 mM tris hydrochloric acid-154 mM sodium chloride, pH7.4). The resultant was homogenized by Hiscotron with ice-cold tris-saline buffer containing a homogenization buffer (1 mM ethylenediaminetetraacetic acid (EDTA), 1 mM 4-(2-aminoethyl)benzenesulfonyl fluoride (AEBSF), 5 μg/ml aprotinin, 5 μg/ml leupeptine) (maximum rate: 1 minute). The supernatant after low-speed centrifugation (1500×g, 20 minutes, 4° C.) was ultracentrifuged (100000×g, 20 minutes, 4° C.), and the pellet was suspended in tris-saline buffer to store at −80° C. The protein concentrations were determined by Bio-Rad Protein Assay Kit using bovine serum albumin (BSA) as a standard.
# To each well in protein-nonabsorptive round-bottom 96-well assay plate (commercially available from Iwaki Glass Co., Ltd.) were added tris-saline buffer (200 μl) containing 1 nM [^125I]-iodocyanopindolol (commercially available from Amersham plc), 10 μM serotonine, 20 μm dl-propranolol, 10 μM phentolamine, 1.1 mM ascorbic acid and 100 μg lung membrane, and the mixture was pipetted to combine and then incubated at 37° C. for 30 minutes. The test compounds were dissolved in 100% dimethyl sulfoxide solution, and thereto was added 2 μl (final DMSO concentration: 1%). In order to calculate nonspecific binding amounts, to the mixture was added L-threo-3-(3,4-dihydroxyphenyl)-N-[3-(4-fluorophenyl)propyl]serine pyrrolidine amide at 100 μM of the final concentration as an alternative to the test compounds. During this time, 100 μl of 0.3% polyethyleneimine (PEI)/tris-saline buffer was added to MultiScreen plate (96-well B glass fiber, Millipore Cat. No. MAFB NOB10), and incubated for over 30 minutes. The resultant was filtered with aspiration (aspiration by the addition of 200 μl iced tris-saline buffer) to wash, and the reaction solutions on 96-well assay plate were filtered with aspiration to wash four times on MultiScreen plate. B glass fiber filter paper at the bottom of MultiScreen plate was punched out, and γ-ray doses of [^125I]-iodocyanopindolol trapped on the filter paper were determined as binding amounts. The binding amounts in the presence of DMSO (final concentration: 1%) were total binding amounts, and the binding amounts in the presence of 100 μM L-threo-3-(3,4-dihydroxyphenyl)-N-[3-(4-fluorophenyl)propyl]serine pyrrolidine amide were nonspecific binding amounts. The values subtracted the nonspecific binding amounts from the total binding amounts were the specific binding amounts. The binding activity of a compound was calculated according to the following formula, which was shown in the ratio of inhibiting the specific binding of [^125I]-iodocyanopindolol to rat lung membrane SMBS by the test compound.
# [2] = system: Corticosterone generation; test: Assessment test of steroid hormone synthesis inhibition (Corticosterone generation in rat adrenal gland cells stimulated with cAMP); type: cell-based; conditions: inhibition rate of 10 μM test article to Corticosterone generation, 2 hours with cAMP
# Method: Assessment Test of Steroid Hormone Synthesis Inhibition
# Control examples 1 to 4: Control example 1 was Example 350 of Patent Document 2. Control examples 2 to 4 were synthesized according to Patent Document 2.
# Adrenal glands were taken out from rats, and removed excess connective tissues, adiposes and membranes in D-MEM. The adrenal glands were transferred to polytubes, and quickly segmentalized with scissors. Thereto was added D-MEM containing 1 mg/mL collagenase and […] DNase I, and then the mixture was shaken at 37° C. for 10 minutes in 80 times/minute. Then, the mixture was pipetted by 1 mL truncated pipette tip, and shaken again under the same condition. After 10 minutes, the mixture was pipetted again by 1 mL pipette tip, and the cell suspension was filtered through metal mesh. The filtrate was centrifuged at 4° C. for 5 minutes in 500 g. The supernatant was removed, and thereto was added a mixed solution of 0.16 M NH4Cl and 0.17 M Tris-HCl in 3 mL. The mixture was let stand on ice for 5 minutes, and then centrifuged under the same condition. Then, the supernatant was removed and then thereto was added D-MEM. The cell suspension was prepared and centrifuged under the same condition. Again, the supernatant was removed and then thereto was added D-MEM to give a cell suspension. The cell suspension was filtered by Cell Strainer (BD Falcon®). The filtrate was centrifuged under the same condition. After the completion of the centrifugation, the supernatant was removed, and thereto was added D-MEM containing 1% Penicillin Streptomycin Mixed Solution and 10% FBS. The mixture was seeded in Multiple well plate for adhesive cell culture, 96 wells (IWAKI) in 10000 cells/well, and incubated at 37° C. overnight in CO2 incubator.
# Test article concentrations were prepared in DMSO to 2000 μM, and D-MEM containing 20 μM test article in D-MEM was prepared.
# Cell-seeded plate was incubated overnight, and then the medium was removed and thereto was added D-MEM containing 20 μM test article in 50 μL/well. Then, to the mixture was promptly added D-MEM containing 20 μM cAMP in 50 μL/well so that the final concentration of the test article was 10 μM. After the addition of 2 types of D-MEM, the mixture was incubated at 37° C. for 2 hours in CO2 incubator. After 2 hours, the supernatant (50 μL) of the medium was collected. For cells, the cell toxicity of the test article was assessed according to a conventional method using Cell Titer-Glo® (Promega). For the collected supernatant, the Corticosterone concentration in the supernatant was determined according to a conventional method using Corticosterone EIA kit (Cayman).
# The inhibition rate of 10 μM test article to Corticosterone generation was calculated according to the following formula confirming that the cell toxicity by the test article was not recognized.
# [3] = system: Guinea Pig Late Asthma Model; test: Assessment of compounds in guinea pig late asthma model; type: in vivo; conditions: 3 mg/kg orally one hour before antigen challenge
# Method: Assessment of Compounds in Guinea Pig Late Asthma Model
# The assessment was carried out using a compound obtained in Example 1.
# Hartley male guinea pigs (commercially available from Japan SLC, Inc.) were pre-bred about 1 week after arrival, and then exposed by inhalation to 2% (w/v) ovalbumin (OA) saline in a plastic box (4 guinea pigs/box) for 5 minutes using a ultrasonic nebulizer (OMRON NE-U12, condition: maximum nebulizing amounts, maximum air volume), and sensitized (day 0). The same operation was carried out on day 7. On day 14 or 15, each guinea pig was administered 2% OA by inhalation for 5 minutes to initiate a response (challenge). […]
# A determination and analysis of respiratory function were carried out according to the method of Penny A. Hutson et al. Am Rev Respir Dis 1988 137, 548-557. The respiratory function was determined before the antigen challenge (before drug administration) and 5 minutes and 1, 2, 3, 4, 5, 6, 7 and 8 hours after the antigen challenge, and wave profiles were imported using MacLab Chart v3.4 (AD Instruments) and analyzed later. […] The sRaw/TV values subtracting the former values were plotted against measured times, and each area under the curve (AUC4-8hr) of each animal was calculated to compare each other in the range of 4 to 8 hours after the antigen challenge. […]
Compound,Binding Activity (%) (1 μM) [1],inhibition at 10 µM [2] [%],"AUC4-8 hr ((sRaw/TV) · h) ([3]; OA-sensitized Hartley male guinea pigs, 4 to 8 hours after challenge)","Improvement Rate (%) ([3]; versus control group (0.5% MC), AUC4-8hr, p<0.01 Dunnett's test)"
"CNC(=O)NCCn1c(-c2ccc(N3CCOCC3)nn2)cs/c1=N\c1cccc(F)c1 [Example 1, N-{2-[(2Z)-2-[(3-Fluorophenyl)imino]-3-[6-(morpholin-4-yl)pyridazinyl]-1,3-thiazol-3(2H)-yl]ethyl}-N′-methylurea]",103,-2,0.411 (sRaw/TV) · h,47
CNC(=O)NCCn1c(-c2ccc(N3CCOCC3)nn2)cs/c1=N\c1ccccc1F [Example 2],75,-8,,
CCNC(=O)NCCn1c(-c2ccc(N3CCOCC3)nn2)cs/c1=N\c1cccc(F)c1 [Example 5],83,-28,,

# Further lines, with some results ahead:
Binding Activity (%) (1 μM) [1],Compound,inhibition at 10 µM [2] [%],"AUC4-8 hr ((sRaw/TV) · h) ([3]; OA-sensitized Hartley male guinea pigs, 4 to 8 hours after challenge)","Improvement Rate (%) ([3]; versus control group (0.5% MC), AUC4-8hr, p<0.01 Dunnett's test)"
82,CCNC(=O)NCCn1c(-c2ccc(N3CCOCC3)nn2)cs/c1=N\c1ccc(F)cc1 [Example 7],15,,
93,CNC(=O)NCCn1c(-c2ccc(N3CCOCC3)nn2)cs/c1=N\c1ccccc1Cl [Example 8],-12,,
88,CCNC(=O)NCCn1c(-c2ccc(N3CCOCC3)nn2)cs/c1=N\c1ccc(Cl)cc1 [Example 11],-8,,
89,CNC(=O)NCCn1c(-c2ccc(N3CCOCC3)nn2)cs/c1=N\c1cncc(C(F)(F)F)c1 [Example 15],11,,

# Reference: patent US20110039848A1, “FIVE-MEMBERED RING COMPOUND” (priority 2008, published 2011)
